# Assay results as given in publication PMC6753678, “Fueling Open Innovation for Malaria Transmission-Blocking Drugs: Hundreds of Molecules Targeting Early Parasite Mosquito Stages” (Frontiers in Microbiology, 2019).
# Like-named read-outs stand apart in the source and are kept apart here.
# Columns and labels:
# [1] = test system: P. falciparum female gametocytes; assay: P. falciparum female gametogenesis assay (Pf FGAA); details: 1: YES; 0: NO
# [2] = test system: HepG2 cells; details: cited from earlier work
# [3] = test system: P. falciparum late stage (stages IV-V) gametocytes; parameters: method as in Almela et al 2016; details: TCAMS screen comparison; ref Almela et al 2016; read-out: Pf GCT ATP IC50; cited from earlier work
# [4] = test system: P. falciparum late stage (stages IV-V) gametocytes; assay: P. falciparum late stage gametocyte ATP depletion assay (Pf GC-ATP); details: 1: YES; 0: NO
# [5] = test system: HepG2 cells; assay: HepG2 cytotoxicity assay; details: HepG2 cytotoxicity unified across the three screens
# Method in brief: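 Cells at 2,500 per well in MEM with 10% fetal bovine serum and 1% NEAA were exposed to test compounds for 48 h at 37°C, 5% CO2. Viability was read by fluorescence, with percent inhibition calculated against 50 μM doxorubicin (positive) and DMSO (negative) controls.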
# [6] = test system: P. falciparum female gametocytes; parameters: method as in Miguel-Blanco et al 2017; details: TCAMS screen comparison; ref Miguel-Blanco et al 2017; read-out: Pf FGAA IC50; cited from earlier work
# [7] = value reported with the Pf FGAA screen, ref Miguel-Blanco et al 2017
# [8] = value reported with the Pf GCT ATP screen, ref Almela et al 2016
Structure (SMILES),Is compound selective in assay? Pf FGAA active? [1],"HepG2 cytoxicity [2, 7] [µM]","HepG2 cytoxicity [2, 8] [µM]",IC50 [3] [µM],Is compound selective in assay? Pf GC-ATP active? [4],Unified cytotox [5] [µM],IC50 [6] [µM]
COc1ccc2c(OC)c(CNCCCCCCNCc3ccc4cc(OC)ccc4c3OC)ccc2c1.CS(=O)(=O)O [TCMDC-137953],0 (0: NO),2.11,3.2,1.54,0 (0: NO),2.66,1
COc1ccc2c(c1CCNCCCCNCCc1c(OC)ccc3c1CCCC3)CCCC2.CS(=O)(=O)O [TCMDC-137324],0 (0: NO),1.68,0.75,0.15,0 (0: NO),1.21,0.64
Fc1ccc(OC2CN(c3nccc(NCc4ccccc4Cl)n3)C2)cc1 [TCMDC-135110],1 (1: YES),83.45,>25,2.51,1 (1: YES),83.45,5.22
CCn1c(-c2nonc2N)nc2c(-c3cccc(NC(=O)Nc4cccc(Cl)c4)c3)ncc(OCCCN)c21.O=C(O)C(F)(F)F [TCMDC-136193],1 (1: YES),80.36,14.5,2.17,1 (1: YES),47.43,1.18
CC(CCCCCC(=O)Nc1ccc(CC(C)NCCc2cccc(Cl)c2)cc1)NCCc1cccc(Cl)c1 (centres unmarked) [TCMDC-139800],0 (0: NO),2.55,3.2,0.43,0 (0: NO),2.87,1.39
SC(=Nc1ccc(Cl)c(Cl)c1)NN=Cc1ccccn1 [TCMDC-125522],1 (1: YES),3.47,9.1,0.07,1 (1: YES),6.28,0.08
Cc1oc(-c2ccc(Cl)cc2)cc1C(=O)NCCC1CCN(CCCCCNC(=O)/C=C/c2ccc(Cl)c(Cl)c2)CC1 [TCMDC-140009],0 (0: NO),3.31,4.1,5.43,0 (0: NO),3.71,1.83
COc1ccc(CCNCCCCCCNCCc2ccc(Cl)c3ccccc23)cc1OC.Cl [TCMDC-131270],0 (0: NO),2.12,3.23,0.13,1 (1: YES),2.68,0.58
COc1cc2nc(N3CCN(C(=O)c4c(Cl)nsc4-c4ccccc4Cl)CC3)nc(N)c2cc1OC.O=C(O)C(F)(F)F [TCMDC-138186],0 (0: NO),5.89,8.18,0.22,1 (1: YES),7.04,0.99
CC(=O)N(Cc1ccc(CC(C)NCCc2cccc(Cl)c2)cc1)Cc1ccc(CC(C)NCCc2cccc(Cl)c2)cc1 (centres unmarked) [TCMDC-139678],0 (0: NO),2.85,2.3,1.4,0 (0: NO),2.58,0.81
Cc1n[nH]c2ccc(-c3ccc4nccc(N5CCC(N)CC5)c4c3)cc12.Cl [TCMDC-134315],0 (0: NO),6.88,11.66,0.38,1 (1: YES),9.27,2.45
